US11192921B2 (priority 2017, dated 2021)
Where “and” joins values, the source holds several entries; their conditions need not be identical. Equal values may be shown once. Read-outs that look alike come from different tables or passages of the source. Marks after values point to notes of the source that are not given here. No end group written: not given here.

Key:
Female Kunming mice [1] = system: Female Kunming mice
SD rats = test: pain threshold of trigeminal nerve (trigeminal neuralgia model); type: in vivo; settings: for highest pain threshold on the operative side / pain threshold on the opposite side: 3 h after injection; for Pain threshold: intraperitoneal
male BALB/c mice [2] = test: cancer-induced pain (CIP) model, thermosensitive test; type: in vivo; settings: heat radiation stimulation
Method: Influence of Analgesic Polypeptides on Neuralgia in a Cancer-Induced Pain (CIP) Model
A number of male BALB/c mice each weighing 25-30 g were used.
Von Fery monofilament; a microsyringe, 5 mg/mL solutions of polypeptides I, II and II I; normal saline.
(§1) BALB/c mice were taken, and the right sciatic nerve was exposed; ascites containing 5×10^4 Meth A sarcoma cells were injected into the proximal nerve near the sciatic nerve trochanter far from the tendon branch of the posterior biceps, the wound was closed, and the same volume of normal saline was injected into the left side by performing a sham operation.
1.3.1 Thermosensitive Test
On the 4th, 7th, 10th and 14th days after inoculation, the latency of foot lifting caused by heat radiation stimulation to animals was observed, and the heat radiation intensity was adjusted to cause the latency of foot lifting of normal mice to be (10±2) s.
All data was expressed as M±SD and subjected to one-way ANOVA.

Kunming mice [3] = type: in vivo
Kunming mice [4] = settings: mouse, in vivo
Female Kunming mice [5] = system: Female Kunming mice; remark: listed apart in the source
Female Kunming mice [6] = system: Female Kunming mice; remark: listed apart in the source
male BALB/c mice [7] = test: cancer-induced pain (CIP) model, gross behavior; type: in vivo; settings: 14th day after inoculation
Method: as §1
On the 4th, 7th, 10th and 14th days after inoculation, spontaneous pain and foot drop and the like occurred before the occurrence of thermal sensitivity and mechanical pain sensitivity behaviors, […]

Female Kunming mice [8] = type: in vivo
[9] = 50 μg/kg, injected subcutaneously
[10] = 100 μg/kg, injected subcutaneously

GSCSTPPSAVLYC (cysteine pairing not given here) [Polypeptide II]
Movement duration of mice in forced swimming tests (Female Kunming mice [1]; 1 h): 19.47 ± 1.32^ s | Movement duration of mice in forced swimming tests (Female Kunming mice [1]; 24 h): 19.03 ± 2.48 s | Movement duration of mice in forced swimming tests (Female Kunming mice [1]; Time 0): 20.98 ± 1.28 s | toxic side effects compared with the conotoxin (forced swimming) (Female Kunming mice [1]; mouse, in vivo, ip): lower toxic side effects | animal reaction thresholds (SD rats; 50 μg/kg and 100 μg/kg, injected subcutaneously): significantly increased | time the pain thresholds lasted (SD rats; [9]): 1 h | highest pain threshold on the operative side (SD rats; [9]): 2.3 ± 0.5 g | pain threshold on the opposite side (SD rats; [9]): 1.2 ± 0.2 g | time the effect on the operative side lasted (SD rats; [10]): about 8 h | highest pain threshold on the operative side (SD rats; [10]): 7.4 ± 0.9 g | pain threshold on the opposite side (SD rats; [10]): 3.2 ± 1.3 g | pain threshold change (SD rats; 300 μg/kg, subcutaneously): not significantly increased | Pain threshold (SD rats; Dose 50 (μg/kg), 0 h): 25.56 ± 0.65 s | Pain threshold (SD rats; Dose 50 (μg/kg), 1 h): 25.23 ± 0.44 s | Pain threshold (SD rats; Dose 50 (μg/kg), 2 h): 26.62 ± 0.56 s | Pain threshold (SD rats; Dose 50 (μg/kg), 3 h): 26.46 ± 0.62 s | Pain threshold (SD rats; Dose 50 (μg/kg), 4 h): 27.15 ± 0.56 s | Pain threshold (SD rats; Dose 50 (μg/kg), 5 h): 26.62 ± 0.13 s | Pain threshold (SD rats; Dose 100 (μg/kg), 0 h): 25.87 ± 0.23 s | Pain threshold (SD rats; Dose 100 (μg/kg), 1 h): 26.12 ± 0.62 s | Pain threshold (SD rats; Dose 100 (μg/kg), 2 h): 27.16 ± 0.32 s | Pain threshold (SD rats; Dose 100 (μg/kg), 3 h): 27.65 ± 0.32 s | Pain threshold (SD rats; Dose 100 (μg/kg), 4 h): 26.23 ± 0.62 s | Pain threshold (SD rats; Dose 100 (μg/kg), 5 h): 25.13 ± 0.32 s | Pain threshold (SD rats; Dose 300 (μg/kg), 0 h): 26.41 ± 0.66 s | Pain threshold (SD rats; Dose 300 (μg/kg), 1 h): 30.12 ± 0.56 s | Pain threshold (SD rats; Dose 300 (μg/kg), 2 h): 30.61 ± 0.62 s | Pain threshold (SD rats; Dose 300 (μg/kg), 3 h): 29.52 ± 0.95 s | Pain threshold (SD rats; Dose 300 (μg/kg), 4 h): 28.62 ± 0.61 s | Pain threshold (SD rats; Dose 300 (μg/kg), 5 h): 27.92 ± 0.61 s | Latency of foot lifting before administration (male BALB/c mice [2]; before administration): 10.12 ± 1.64 | Latency (D) of foot lifting after administration (male BALB/c mice [2]; day 4): 9.87 ± 0.78 | Latency (D) of foot lifting after administration (male BALB/c mice [2]; day 7): 8.75 ± 0.89 | Latency (D) of foot lifting after administration (male BALB/c mice [2]; day 10): 8.31 ± 0.92 | Latency (D) of foot lifting after administration (male BALB/c mice [2]; day 14): 6.56 ± 0.56 | Pain threshold (tail flick) (Kunming mice [3]; 0 min): 2.43 ± 0.21^∧ s | Pain threshold (tail flick) (Kunming mice [3]; 15 min): 2.52 ± 0.24 s | Pain threshold (tail flick) (Kunming mice [3]; 30 min): 2.31 ± 0.36 s | Pain threshold (tail flick) (Kunming mice [3]; 45 min): 2.45 ± 0.12 s | Pain threshold (tail flick) (Kunming mice [3]; 60 min): 2.12 ± 0.41 s | Pain threshold (tail flick) (Kunming mice [3]; 75 min): 2.23 ± 0.14^∧ s | Pain threshold (tail flick) (Kunming mice [3]; 90 min): 2.24 ± 0.12 s | analgesic effects in formalin-induced pain experiments (Kunming mice [4]): good analgesic effects | cumulative foot licking time, Phase I (Kunming mice [4]): 48.20 ± 11.31*^ | cumulative foot licking time, Phase II (Kunming mice [4]): 40.53 ± 14.32 | Duration of the immobility of mice in tail suspension tests (Female Kunming mice [5]; 1 h): 19.47 ± 1.32^ s | Duration of the immobility of mice in tail suspension tests (Female Kunming mice [5]; 24 h): 19.03 ± 2.48 s | Duration of the immobility of mice in tail suspension tests (Female Kunming mice [5]; Time 0): 20.98 ± 1.28 s | data of tail suspension test compared with the normal saline group (Female Kunming mice [5]; mouse, in vivo, ip): no significant difference | toxic side effects compared with the conotoxin (tail suspension) (Female Kunming mice [5]; mouse, in vivo, ip): lower toxic side effects | Movement distances of mice in open field tests (Female Kunming mice [6]; 1 h): 19.47 ± 1.32^ | Movement distances of mice in the center area in open field tests (Female Kunming mice [6]; 1 h): 19.47 ± 1.32^ | Movement distances of mice in the peripheral area in open field tests (Female Kunming mice [6]; 1 h): 19.47 ± 1.32^ | Number of entrances to the center area in open field tests (Female Kunming mice [6]; 1 h): 19.47 ± 1.32^ | Number of entrances to the peripheral area in open field tests (Female Kunming mice [6]; 1 h): 19.47 ± 1.32^ | Residence time in the center area in open field tests (Female Kunming mice [6]; 1 h): 19.47 ± 1.32^ s | Residence time in the peripheral area in open field tests (Female Kunming mice [6]; 1 h): 19.47 ± 1.32^ s | Movement distances of mice in open field tests (Female Kunming mice [6]; 24 h): 19.03 ± 2.48 m | Movement distances of mice in the center area in open field tests (Female Kunming mice [6]; 24 h): 19.03 ± 2.48 m | Movement distances of mice in the peripheral area in open field tests (Female Kunming mice [6]; 24 h): 19.03 ± 2.48 m | Number of entrances to the center area in open field tests (Female Kunming mice [6]; 24 h): 19.03 ± 2.48 | Number of entrances to the peripheral area in open field tests (Female Kunming mice [6]; 24 h): 19.03 ± 2.48 | Residence time in the center area in open field tests (Female Kunming mice [6]; 24 h): 19.03 ± 2.48 s | Residence time in the peripheral area in open field tests (Female Kunming mice [6]; 24 h): 19.03 ± 2.48 s | Movement distances of mice in open field tests (Female Kunming mice [6]; Time 0): 20.98 ± 1.28 m | Movement distances of mice in the center area in open field tests (Female Kunming mice [6]; Time 0): 20.98 ±1.28 m | Movement distances of mice in the peripheral area in open field tests (Female Kunming mice [6]; Time 0): 20.98 ± 1.28 m | Number of entrances to the center area in open field tests (Female Kunming mice [6]; Time 0): 20.98 ± 1.28 | Number of entrances to the peripheral area in open field tests (Female Kunming mice [6]; Time 0): 20.98 ± 1.28 | Residence time in the center area in open field tests (Female Kunming mice [6]; Time 0): 20.98 ± 1.28 s | Residence time in the peripheral area in open field tests (Female Kunming mice [6]; Time 0): 20.98 ± 1.28 s | side effects compared with conotoxin (open field) (Female Kunming mice [6]; mouse, in vivo, ip): lower side effects | various indexes in open field experiments compared with the normal saline group (Female Kunming mice [6]; mouse, in vivo, ip): no significant difference | left foot lifting behavior (male BALB/c mice [7]): obviously observed | Pain threshold (Female Kunming mice [8]; 0 min): 27.43 ± 0.54^∧ s | Pain threshold (Female Kunming mice [8]; mouse, in vivo, ip): 42.54 ± 0.24^∧ s and 22.33 ± 0.36 s and 27.45 ± 0.52 s and 31.34 ± 0.45*^∧ s and 25.43 ± 0.54^∧ s and 26.24 ± 0.42 s | heat thresholds of mice compared with the normal saline negative control group (Female Kunming mice [8]; mouse, in vivo, ip): effectively increase the heat thresholds of mice | increase of the pain threshold compared with the normal saline group and the conotoxin group (Female Kunming mice [8]; mouse, in vivo, ip): significantly higher
